In patent US20090131470A1, “PYRAZOLE-SUBSTITUTED BENZIMIDAZOLE DERIVATIVES FOR USE IN THE TREATMENT OF CANCER AND AUTOIMMUNE DISORDERS” (priority 2005, published 2009):

Experiments:
Assay type in all cases: biochemical
PDK1 = target: T1, PDK1 (Homo sapiens, UniProt O15530); assay: PDK1 kinase assay (33P peptide phosphorylation); conditions: 0.01 mM ATP, 60 min at 30° C.; read-out: PDK-1 IC50
T1 sequence (O15530 1-556): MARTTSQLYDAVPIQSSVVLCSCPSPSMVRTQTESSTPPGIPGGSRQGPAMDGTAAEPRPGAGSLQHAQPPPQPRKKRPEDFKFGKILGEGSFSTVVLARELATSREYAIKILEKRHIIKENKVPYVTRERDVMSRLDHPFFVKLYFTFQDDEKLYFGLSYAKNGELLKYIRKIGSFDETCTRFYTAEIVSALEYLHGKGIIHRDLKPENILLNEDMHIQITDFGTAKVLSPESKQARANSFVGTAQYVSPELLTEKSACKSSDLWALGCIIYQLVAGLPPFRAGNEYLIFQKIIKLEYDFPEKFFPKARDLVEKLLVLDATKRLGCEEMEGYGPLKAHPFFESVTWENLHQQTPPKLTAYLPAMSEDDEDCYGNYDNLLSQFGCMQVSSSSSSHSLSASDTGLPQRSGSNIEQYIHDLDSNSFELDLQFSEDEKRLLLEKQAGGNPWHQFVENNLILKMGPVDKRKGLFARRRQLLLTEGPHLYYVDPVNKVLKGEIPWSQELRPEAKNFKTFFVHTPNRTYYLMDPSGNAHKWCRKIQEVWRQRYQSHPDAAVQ
Protocol: (§1) The assay mixture containing the inhibitor and PDK1 enzyme was mixed together in a microtiter plate in a final volume of 50 μl and incubated for 60 min at 30° C. The assay mixture contained 0.01 mM unlabeled ATP, 0.01 μCi/μl ^33P-γ-ATP, 0.075 mM peptide, 0.1 mg/ml BSA, 7.5 mM magnesium acetate, 0.05M Tris.HCl, pH 7.5, 0.5% 2-mercaptoethanol. The reaction was stopped by adding 50 μl of 50 mM phosphoric acid. 90 μl of the mixture were transferred to a pre-wetted 96-well Multiscreen MAPHNOB filtration plate (Millipore) and filtered on a vacuum manifold. The filter plate was washed with 3 successive additions of 200 μl 50 mM phosphoric acid and then with 100 μl methanol. The filtration plate was dried for 10 min at 65° C., scintillant added and phosphorylated peptide quantified in a scintillation counter (Trilux, PerkinElmer)

GST-Chk1 enzyme = target: T2, GST-Chk1 enzyme (Homo sapiens, UniProt O14757); assay: Chk1 kinase assay (33P Chktide phosphorylation); conditions: 0.01 mM ATP, 40 minutes at 30° C.; read-out: CHK-1 IC50
T2 sequence (O14757 1-476): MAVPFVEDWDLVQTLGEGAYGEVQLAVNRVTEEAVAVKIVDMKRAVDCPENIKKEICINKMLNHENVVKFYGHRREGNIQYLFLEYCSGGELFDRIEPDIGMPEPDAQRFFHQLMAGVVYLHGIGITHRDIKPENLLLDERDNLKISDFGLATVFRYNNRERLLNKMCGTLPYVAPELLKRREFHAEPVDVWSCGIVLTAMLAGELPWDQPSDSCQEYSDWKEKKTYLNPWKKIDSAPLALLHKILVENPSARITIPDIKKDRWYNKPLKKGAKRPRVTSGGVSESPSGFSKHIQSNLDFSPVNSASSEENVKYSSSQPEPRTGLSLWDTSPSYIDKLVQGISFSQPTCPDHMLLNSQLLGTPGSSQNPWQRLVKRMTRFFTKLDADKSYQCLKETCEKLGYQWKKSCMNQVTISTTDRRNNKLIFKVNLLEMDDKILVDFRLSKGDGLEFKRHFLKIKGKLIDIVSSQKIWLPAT
Protocol: as §1, with “Chk1” for “PDK1”, “40 minutes” for “60 min”, “The assay mixture contained 0.01 mM unlabeled ATP, 0.01 μCi/μl ^33P-γ-ATP, 0.075 mM peptide, 0.1 mg/ml BSA, 7.5 mM magnesium acetate, 0.05M Tris.HCl, pH 7.5, 0.5% 2-mercaptoethanol.” left out, “was” for “were”, “multi-screen” for “Multiscreen”

Akt1 = target: T3, Akt1 (Homo sapiens, UniProt P31749); assay: Akt1 kinase assay (Histone H1 substrate); conditions: 200 μM ATP, read-out: AKT-1 IC50
T3 construct: purchased Upstate
T3 sequence (P31749 whole entry, species assumed): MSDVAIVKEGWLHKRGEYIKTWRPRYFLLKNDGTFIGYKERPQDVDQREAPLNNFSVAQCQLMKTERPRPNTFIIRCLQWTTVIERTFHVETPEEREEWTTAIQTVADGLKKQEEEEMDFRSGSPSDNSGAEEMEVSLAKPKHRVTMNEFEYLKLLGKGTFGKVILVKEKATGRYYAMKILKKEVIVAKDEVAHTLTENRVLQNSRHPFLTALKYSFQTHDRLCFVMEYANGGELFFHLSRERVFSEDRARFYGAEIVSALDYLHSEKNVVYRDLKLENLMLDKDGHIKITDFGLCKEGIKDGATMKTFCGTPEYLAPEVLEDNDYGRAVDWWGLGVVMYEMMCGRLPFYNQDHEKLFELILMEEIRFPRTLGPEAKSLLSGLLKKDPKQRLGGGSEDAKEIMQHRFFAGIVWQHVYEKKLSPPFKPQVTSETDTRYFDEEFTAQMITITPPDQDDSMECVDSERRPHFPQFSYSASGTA
Protocol: (§2) Assays for the cyclin dependent kinase activity were carried out by monitoring the phosphorylation of a synthetic peptide, HATTPKKKRK. The assay mixture containing the inhibitor and CDK-2 enzyme, complexed with cyclin A (0.4 U/ml) was mixed together in a microtiter plate in a final volume of 50 μl and incubated for 40 min at 30° C. The assay mixture contained 0.1 mM unlabeled ATP, 0.01 μCi/μl ^33P-γ-ATP, 0.03 mM peptide, 0.1 mg/ml BSA, 7.5 mM magnesium acetate, 50 mM HEPES-NaOH, pH 7.5. The reaction was stopped by adding 50 μl of 50 mM phosphoric acid. 90 μl of the mixture were transferred to a pre-wetted 96-well Multiscreen MAPHNOB filtration plate (Millipore) and filtered on a vacuum manifold. The filter plate was washed with 3 successive additions of 200 μl 50 mM phosphoric acid and then with 100 μl methanol. The filtration plate was dried for 10 min at 65° C., scintillant added and phosphorylated peptide quantified in a scintillation counter (Trilux, PerkinElmer)
Protocol for the Akt assay is the same for CDK2 except that, 3 nM Akt1 (Upstate) was used with Histone H1 as substrate with a final ATP concentration of 200 μM. The reaction was incubated at 30° C. for 40 minutes.

PKA = target: T4, PKA (Homo sapiens, UniProt P17612); assay: PKA kinase assay (Kemptide substrate); conditions: 100 μM ATP
T4 construct: purchased Upstate
Protocol: as §2, with “The” for “Assays for the cyclin dependent kinase activity were carried out by monitoring the phosphorylation of a synthetic peptide, HATTPKKKRK. The”
The PKA assay was incubated at 30° C. for 30 minutes.

[1] = target: CDK-2 enzyme, complexed with cyclin A (Homo sapiens, UniProt P24941); assay: CDK2 kinase assay (33P peptide phosphorylation); conditions: 0.1 mM ATP, cyclin A complex
Protocol: as §2, with “The” for “Assays for the cyclin dependent kinase activity were carried out by monitoring the phosphorylation of a synthetic peptide, HATTPKKKRK. The”

**Q.** For Cc1[nH]nc(-c2nc3ccc(C(C)C)cc3[nH]2)c1C(=O)NC1CCN(C)CC1 [Example 46], which IC50 (PDK1) is on record?
**A.** Its IC50 is 0.036 µM.

**Q.** And the IC50 (GST-Chk1 enzyme)?
**A.** Its IC50 is 0.014 µM.

**Q.** What about the IC50 (Akt1) of the same compound?
**A.** The IC50 was greater than 10 µM.

**Q.** What about the IC50 (PKA) of the same compound?
**A.** Its IC50 is 3.8 µM.

**Q.** What about the IC50 [1] of the same compound?
**A.** Its IC50 is 24.2 µM.

**Q.** Which results are given for Cc1[nH]nc(-c2nc3ccc(C4CC4)cc3[nH]2)c1C(=O)NC1CN2CCC1CC2 (stereo not shown) [Example 47]?
**A.** IC50 (PDK1): 0.106 µM; IC50 (GST-Chk1 enzyme): 0.085 µM; IC50 (Akt1): > 10 µM; IC50 (PKA): 3.82 µM; IC50 [1]: > 50 µM
